From PubChem BioAssay (NCI) come the findings set out here.

Some test systems named below: CCRF-CEM leukemia; PC-3 prostate; RXF 393 renal; SF-539 CNS; SK-MEL-28 melanoma; SK-MEL-5 melanoma; U251 CNS; NCI-H522 lung; HCC-2998 colon; UACC-62 melanoma.
Common to all, as to assay: NCI tumour cell line growth inhibition, 48 h

Where “and” joins values, the source holds several entries; their conditions need not be identical. Equal entries are not always repeated.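 These data come from cells grown in 96-well plates and exposed to compound for 48 hours at five concentrations. Abbreviation: GI50, concentration required for 50% inhibition of growth. TGI denotes the concentration required for complete inhibition of growth.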 *1 amine or outer side, *2 acyl side, *3 side chain or, on linkers, in order; H or OH if unused. Where a SMILES comes first, the peptide text is derived from it. Bridges are numbered along the chain shown (N, C = ends). Roman numbers before positions name the chains, in order. [ ]: non-standard residue; d: D form. Actinocin(9to1) = Cc1c2oc3c(C)ccc(C(=O)[*:1])c3nc-2c(C(=O)[*:2])c(N)c1=O; NMeV = CN[CH](C(=O)O)C(C)C; Sar = CNCC(=O)O

Take `CNc1nnc(CCCCCCCCc2nnc(NC)o2)o1`: the TGI in the assay on CCRF-CEM leukemia was 43 µM; in the assay on PC-3 prostate, greater than 100 µM; in the assay on RXF 393 renal, greater than 100 µM; with SF-539 CNS, greater than 100 µM; in the assay on SK-MEL-28 melanoma it was greater than 100 µM; in the assay on SK-MEL-5 melanoma, greater than 100 µM. This compound had a TGI in the assay with U251 CNS of 63.7 µM.

With `O=C(c1ccccc1)c1ccc2nc(-c3c(Cl)c(Cl)c(Cl)c(Cl)c3-c3nnc(-c4ccccc4)o3)[nH]c2c1`, the TGI is greater than 100 µM in the assay with CCRF-CEM leukemia; 55.7 µM in the assay with NCI-H522 lung; greater than 100 µM with PC-3 prostate; 47.1 µM in the assay on RXF 393 renal; greater than 100 µM with SF-539 CNS; greater than 100 µM in the assay on SK-MEL-28 melanoma. Besides, the TGI in the assay with SK-MEL-5 melanoma was 54.1 µM; in the assay with U251 CNS it was greater than 100 µM.

Turning to `COc1cccc(N=N/C(=N/NC(=O)c2ccc(C)cc2)c2ccc(N(CCC#N)CCC#N)cc2OC)c1`, the TGI with CCRF-CEM leukemia, in the assay on HCC-2998 colon, with NCI-H522 lung, in the assay on PC-3 prostate, in the assay on RXF 393 renal and with SK-MEL-28 melanoma was greater than 100 µM each time. Besides, the TGI in the assay with SK-MEL-5 melanoma, in the assay with U251 CNS and in the assay on UACC-62 melanoma was greater than 100 µM in each case.

As for `O=C1COc2cc(N3CCN(c4cccc(C(F)(F)F)c4)CC3)ccc2N1`, the TGI in the assay with CCRF-CEM leukemia, in the assay on HCC-2998 colon, with NCI-H522 lung, in the assay with PC-3 prostate, in the assay with SF-539 CNS and with SK-MEL-28 melanoma was greater than 100 µM each time. The TGI in the assay on SK-MEL-5 melanoma, in the assay with U251 CNS and with UACC-62 melanoma was greater than 100 µM throughout.

As to `Cc1c2oc3c(C)ccc(C(=O)NC4C(=O)NC(Cc5ccccc5)C(=O)N5CCCC5C(=O)N(C)CC(=O)N(C)C(C(C)C)C(=O)OC4C)c3nc-2c(C(=O)NC2C(=O)NC(Cc3ccccc3)C(=O)N3CCCC3C(=O)N(C)CC(=O)N(C)C(C(C)C)C(=O)OC2C)c(N)c1=O` (centres undefined) (I: TFP[Sar][NMeV] / II: TFP[Sar][NMeV]; ester I:1-I:C, II:1-II:C; linker I:N-II:N via Actinocin(9to1); configuration not given here), the TGI in the assay with CCRF-CEM leukemia is 0.00791 µM; in the assay on NCI-H522 lung, 0.0217 µM; in the assay on RXF 393 renal, 0.00952 µM and 0.0394 µM; in the assay with SK-MEL-28 melanoma it was 0.0298 µM and 0.0417 µM; in the assay on SK-MEL-5 melanoma, 0.0192 µM and 0.0125 µM; in the assay on U251 CNS it was 1.06 µM and 1.26 µM. For the same compound, the TGI in the assay with UACC-62 melanoma stood at 0.00232 µM. Besides, the GI50 in the assay with RXF 393 renal and in the assay on SF-539 CNS was less than 0.001 µM throughout.

Turning to `Cc1ccc(S(=O)(=O)NC(CCC(=O)NNc2ccccc2)C(=O)NNc2ccccc2)cc1` (centres undefined), the TGI with CCRF-CEM leukemia, with NCI-H522 lung, in the assay on PC-3 prostate, in the assay on RXF 393 renal, with SF-539 CNS and with SK-MEL-5 melanoma was greater than 100 µM throughout. For the same compound, the TGI in the assay on U251 CNS and with UACC-62 melanoma was greater than 100 µM in each case.

For the compound `CCc1cccc2c3c([nH]c12)-c1ccccc1NC(=O)C3`, the TGI in the assay with CCRF-CEM leukemia, in the assay with SK-MEL-28 melanoma, in the assay on SK-MEL-5 melanoma, in the assay on U251 CNS and in the assay on UACC-62 melanoma was greater than 100 µM throughout.

As to `NS(=O)(=O)c1nc(S(=O)(=O)O)c2[nH]cnc2n1`, the TGI in the assay on NCI-H522 lung, in the assay on PC-3 prostate, in the assay on RXF 393 renal, in the assay on SF-539 CNS, in the assay on SK-MEL-28 melanoma and in the assay on SK-MEL-5 melanoma was greater than 100 µM each time. In addition, the TGI in the assay on U251 CNS and in the assay with UACC-62 melanoma was greater than 100 µM each time.

For `CCN1C/C(=C\c2ccc(Cl)cc2)c2nc(N)c(C#N)c(-c3ccc(Cl)cc3)c2C1`, the TGI in the assay on CCRF-CEM leukemia, in the assay on HCC-2998 colon, with NCI-H522 lung, with PC-3 prostate, in the assay with RXF 393 renal and in the assay on SK-MEL-28 melanoma was greater than 100 µM in each case. Moreover, the TGI with SK-MEL-5 melanoma, in the assay on U251 CNS and in the assay with UACC-62 melanoma was greater than 100 µM each time.

Take `O=C1NC(=O)c2ccccc2/C1=C/c1ccc2c(c1)OCO2`: the TGI is greater than 100 µM with CCRF-CEM leukemia; 38.9 µM in the assay with HCC-2998 colon; greater than 100 µM with NCI-H522 lung; 17.4 µM with RXF 393 renal; 46.7 µM with SF-539 CNS; 29.8 µM in the assay with SK-MEL-5 melanoma. The TGI in the assay on UACC-62 melanoma was found to be 54.3 µM.

On to `CN(Cc1cnc2nc(N)nc(N)c2n1)c1ccc(C(=O)NC23CC4CC(CC(C4)C2)C3)cc1`, for which the TGI was found to be 52 µM with CCRF-CEM leukemia; 19 µM in the assay with PC-3 prostate; 40.4 µM with RXF 393 renal; 17.7 µM with SK-MEL-5 melanoma; 44.3 µM in the assay with U251 CNS; 19.3 µM in the assay on UACC-62 melanoma.

On to `O=C(COc1ccc(OCC(=O)N2C(=O)CC(=O)N(c3ccc(Cl)cc3)C2=S)cc1)N1C(=O)CC(=O)N(c2ccc(Cl)cc2)C1=S`, for which the TGI in the assay on HCC-2998 colon was greater than 100 µM; in the assay on NCI-H522 lung, 53.8 µM; with PC-3 prostate it was greater than 100 µM; in the assay on RXF 393 renal, 83.1 µM; in the assay on SK-MEL-28 melanoma, greater than 100 µM; in the assay with SK-MEL-5 melanoma it was greater than 100 µM. Moreover, the TGI in the assay on U251 CNS is greater than 100 µM; in the assay with UACC-62 melanoma, 60.5 µM.

As for `CN1/C(=C/C=C/C=C/C=C2C(=O)c3ccccc3C2=O)C(C)(C)c2ccccc21`, the TGI is greater than 100 µM with CCRF-CEM leukemia; greater than 100 µM with NCI-H522 lung; 81.4 µM in the assay on RXF 393 renal; 91.3 µM in the assay on SF-539 CNS; 36.1 µM with SK-MEL-5 melanoma; 58.3 µM in the assay with UACC-62 melanoma.

For `CC1CC/C(=C\c2ccc(F)cc2)C2=C1C(c1ccc(F)cc1)N1C(=O)CSC1=N2` (centres undefined), the TGI with CCRF-CEM leukemia, in the assay with PC-3 prostate, in the assay with RXF 393 renal, in the assay with SF-539 CNS, in the assay with SK-MEL-28 melanoma and with SK-MEL-5 melanoma was greater than 100 µM throughout. The TGI with U251 CNS and in the assay on UACC-62 melanoma was greater than 100 µM each time.

Consider `O[C@@H]1C=C[C@]23CCN(Cc4cc5c(cc42)OCO5)[C@@H]3C1`, for which the TGI in the assay with CCRF-CEM leukemia, with NCI-H522 lung, with PC-3 prostate, in the assay on RXF 393 renal, in the assay on SF-539 CNS and in the assay with SK-MEL-28 melanoma was greater than 100 µM each time. The TGI in the assay with SK-MEL-5 melanoma, in the assay on U251 CNS and with UACC-62 melanoma was greater than 100 µM throughout.

Take `COc1cc2ccc(C(=O)NCCCNC(=O)c3ccc4cc(OC)c(OC)cc4c3)cc2cc1OC`: the TGI with CCRF-CEM leukemia, in the assay with HCC-2998 colon, in the assay with NCI-H522 lung, in the assay on PC-3 prostate, in the assay on SF-539 CNS and in the assay with SK-MEL-28 melanoma was greater than 100 µM in each case. Moreover, the TGI in the assay on SK-MEL-5 melanoma, with U251 CNS and in the assay with UACC-62 melanoma was greater than 100 µM in each case.

Regarding `Clc1sc(Cl)c2c1[C@@H](Cl)C[C@@H]2Cl`, the TGI with CCRF-CEM leukemia was greater than 100 µM; with HCC-2998 colon, greater than 100 µM; in the assay on NCI-H522 lung, 58.2 µM; in the assay with SF-539 CNS, greater than 100 µM; in the assay with SK-MEL-28 melanoma, greater than 100 µM; in the assay on SK-MEL-5 melanoma, greater than 100 µM. In addition, the TGI in the assay with U251 CNS and with UACC-62 melanoma was greater than 100 µM each time.

Take `N#CC1(C#N)C(C#N)(C#N)C1(C#N)C(N)=O`: the TGI with CCRF-CEM leukemia, with HCC-2998 colon, with NCI-H522 lung, with PC-3 prostate, in the assay on RXF 393 renal and in the assay on SK-MEL-28 melanoma was greater than 100 µM throughout. Besides, the TGI in the assay with SK-MEL-5 melanoma, with U251 CNS and with UACC-62 melanoma was greater than 100 µM each time.

As to `O=C1CCCNn2c(nc3ncccc3c2=O)N1`, the TGI with CCRF-CEM leukemia, with NCI-H522 lung, with PC-3 prostate, in the assay with RXF 393 renal, with SF-539 CNS and in the assay with SK-MEL-5 melanoma was greater than 100 µM each time. Besides, the TGI in the assay on U251 CNS and in the assay on UACC-62 melanoma was greater than 100 µM each time.

For `C#CC(O)(c1nc2ccccc2s1)c1nc2ccccc2s1`, the TGI in the assay with CCRF-CEM leukemia is 79 µM; in the assay with NCI-H522 lung, 39.7 µM; in the assay with PC-3 prostate, 64.7 µM; with RXF 393 renal, 89.7 µM; in the assay with SF-539 CNS, 36.7 µM; in the assay with SK-MEL-28 melanoma it was greater than 100 µM. Besides, the TGI with SK-MEL-5 melanoma was found to be 30.7 µM; in the assay with U251 CNS, 44 µM; in the assay on UACC-62 melanoma it was 26.1 µM.

As to `COC(=O)[C@H](Cc1c[nH]c2ccccc12)NP(=O)(OCCC#N)OCC1OC(n2cc(C)c(=O)[nH]c2=O)CC1N=[N+]=[N-]` (some centres undefined), the TGI in the assay with CCRF-CEM leukemia, in the assay with HCC-2998 colon, with NCI-H522 lung, in the assay with PC-3 prostate, with RXF 393 renal and with SK-MEL-5 melanoma was greater than 100 µM each time. The TGI in the assay on U251 CNS and in the assay with UACC-62 melanoma was greater than 100 µM throughout.

For `COC(C/C(=C/CO[Si](C(C)C)(C(C)C)C(C)C)C(=O)N(COCC[Si](C)(C)C)c1ccccc1I)OC`, the TGI was greater than 100 µM in the assay on CCRF-CEM leukemia; greater than 100 µM with HCC-2998 colon; 83.6 µM in the assay on PC-3 prostate; 50 µM in the assay on SK-MEL-28 melanoma; greater than 100 µM in the assay with SK-MEL-5 melanoma; 94.8 µM with U251 CNS. In addition, in the assay with UACC-62 melanoma, the TGI came out at 50.7 µM.
